Key:
KRASG12C PDX models = conditions: Janes et al. 2018; cited from earlier work
[1] = tested on: LLC tumor-specific T cells; experiment: IFN-γ ELISpot assay of TILs from LLC tumors; assay type: in vivo, B6 mice; conditions: 2.0×10^4 CD90.2+ TILs, day 7, co-cultured 1:1 with irradiated LLC cells
[2] = tested on: LLC tumor microenvironment; experiment: Flow cytometry of immune cells in LLC tumor tissues; assay type: in vivo, B6 mice; conditions: days 6 and 11
AE17 cells = experiment: Cell viability (CCK8) assay, AE17 cells; assay type: cell-based, murine; conditions: AE17 (KRASG12C mutant), 0.016 up to 7500 nM, 48 h
LLC s.c. tumor = experiment: Subcutaneous LLC tumor model, tumor size and survival; assay type: in vivo, B6 mice
LLC cells = experiment: Cell viability (CCK8) assay, LLC cells; assay type: cell-based, murine; conditions: LLC (KRASG12C mutant), 0.016 up to 7500 nM, 48 h
[3] = tested on: viral replication of vvTD and vvTD-IL36γ; assay type: cell-based, vaccinia virus
H2122 cells = experiment: Cell viability (CCK8) assay, H2122 cells; assay type: cell-based, human; conditions: H2122 (KRASG12C mutant), 0.016 up to 7500 nM, 48 h
AE17 s.c. tumor = experiment: Subcutaneous AE17 tumor model, tumor size and survival; assay type: in vivo, B6 mice
MC38 s.c. tumor = experiment: Subcutaneous MC38 tumor model, tumor size and survival; conditions: for Median survival: MC38 s.c. tumor, FIG. 2F

C=CC(=O)N1CCN(c2ncnc3c(F)c(-c4c(O)cccc4F)c(Cl)cc23)CC1 [ARS-1620]
in vivo antitumor effect (KRASG12C PDX models): tumor regression

C=CC(=O)N1CCN(c2nc(OC[C@@H]3CCCN3C)nc3c2CCN(c2cccc4cccc(C)c24)C3)C[C@@H]1CC#N [MRTX1257]
number of IFN-γ ELISpot spots [1]: ~180 spots
CD8+ T cells in tumor tissue [2]: no reduction
sensitivity of cancer cells to MRTX1257 (AE17 cells): highly sensitive
antitumor effect (tumor size) (LLC s.c. tumor; LLC model, MRTX1257 60 mg/kg oral, OVs 2.0e6 pfu/mouse intratumoral, FIG. 3A): significant antitumor effect
Median survival (LLC s.c. tumor; LLC s.c. tumor, MRTX1257 60 mg/kg, FIG. 2D): 36 days
Median survival (LLC s.c. tumor; LLC s.c. tumor, MRTX1257 100 mg/kg, FIG. 2D): 39.5 days
Median survival (LLC s.c. tumor; LLC s.c. tumor, MRTX1257 200 mg/kg, FIG. 2D): 45 days
inhibition of tumor growth (LLC s.c. tumor; LLC tumor model, 60-200 mg/kg, FIG. 2A): good efficacy
Median survival (LLC s.c. tumor; LLC tumor, OV i.t. single dose, MRTX1257 60 mg/kg oral daily for 3 weeks, FIG. 3B): 39 days
Median survival (LLC s.c. tumor; LLC tumor, combination with PD-1 blockade, FIG. 6E): 39 days
sensitivity of cancer cells to MRTX1257 (LLC cells): highly sensitive
effect on viral replication and accumulation of vvTD and vvTD-IL36γ [3]: small inhibitory effect
sensitivity of cancer cells to MRTX1257 (MC38 cells; MC38 (non-KRASG12C), 0.016 up to 7500 nM, 48 h): less sensitive
drug-mediated cytotoxicity over time (MC38 cells; MC38, MRTX1257 at 100 nM, 24-72 h, versus LLC and AE17): much more resistant
sensitivity of cancer cells to MRTX1257 (H2122 cells): more sensitive than A549 cells
Median survival (AE17 s.c. tumor; AE17 s.c. tumor, MRTX1257 60 mg/kg, FIG. 2E): 40.5 days
Median survival (AE17 s.c. tumor; AE17 s.c. tumor, MRTX1257 100 mg/kg, FIG. 2E): 40 days
Median survival (AE17 s.c. tumor; AE17 s.c. tumor, MRTX1257 200 mg/kg, FIG. 2E): 47 days
inhibition of tumor growth (AE17 s.c. tumor; AE17 tumor model, 60-200 mg/kg, FIG. 2B): good efficacy
Median survival (AE17 s.c. tumor; AE17 tumor, OV i.t. single dose, MRTX1257 60 mg/kg oral daily for 3 weeks, FIG. 3): 49.5 days
Median survival (MC38 s.c. tumor; MRTX1257 60 mg/kg): 24 days
Median survival (MC38 s.c. tumor; MRTX1257 100 mg/kg): 24 days
Median survival (MC38 s.c. tumor; MRTX1257 200 mg/kg): 22 days
inhibition of tumor growth (MC38 s.c. tumor; MC38 tumor model, 60-200 mg/kg, FIG. 2C): no effect

Source: patent US12605383B2, “Methods of treating cancer” (priority 2020, dated 2026)
